Data set [1] relates to advanced breast tumors. Put plainly: Phase 1b open-label dose escalation study of BA with chemotherapeutic regimens. The class given is in vivo, human.
Data set [2] relates to MDA-MB-468 triple negative breast adenocarcinoma cell line. Put plainly: Cell cycle analysis (PI staining, flow cytometry). It counts as cell-based, human. On the set-up: G1 / S / G2/M: unit not given here. For orientation: Flow cytometry measures light scatter and fluorescence of single cells or particles in a stream.
Data set [3] can be described thus: Lipophilicity. It counts as physicochemical. The text has this: (§1) The person skilled in the art will recognize that BA may be administered in any pharmaceutically acceptable form. e.g. as a pharmaceutically acceptable salt, solvate, or complex. Additionally, as BA is capable of tautomerizing in solution, the tautomeric form of BA is intended to be embraced by the term BA (or the equivalent 4-iodo-3-nitrobenzamide), along with the salts, solvates or complexes. In some embodiments, BA may be administered in combination with a cyclodextrin, such as hydroxypropylbetacyclodextrin.

For data set [4] the following is noted: in vivo; cited from earlier work.
Data set [5] concerns the target T1, PARP (Homo sapiens, UniProt P09874).
T1 construct: endogenous in cells; host or cells: peripheral blood mononuclear cells (PBMCs) from patients
Put plainly: PARP inhibition in peripheral mononuclear blood cells (PMBCs) from patients. The class given is in vivo. Here is the method: The functional activity of PARP before and after treatment of BA will be determined using a PARP activity assay in Peripheral Blood Mononuclear Cells (PBMCs). PBMCs will be prepared from 5 mL blood samples according to procedures described in detail in the study manual and PARP activity/inhibition will be measured.

Data set [6] has as its system MDA-MB-468 triple negative breast adenocarcinoma cell line. Description: Vital cells, % control. It counts as cell-based, human. As to the method: (§2) Breast cancer cells are obtained from ATCC and cultured in Dulbecco Modified Eagle Medium with 10% fetal bovine serum. Cells are plated at 10^5 cells per P100 cell culture dish or at 10^4 cells per P60 cell culture dish in the presence of different concentrations compounds or DMSO control. Following treatment, the number of attached cells is measured using Coulter counter, and by staining with 1% methylene blue. Methylene blue is dissolved in 50%-50% mixture of Methanol and water. Cells are plated in 24- or 96-well plates and treated as planned, media are aspirated, cells are washed with PBS, fixed in methanol for 5-10 min, methanol is aspirated and plates are allowed to dry completely. Methylene blue solution is added to wells and plates are incubated for 5 min. Staining solution is removed and plates are washed with dH2O until washes are no longer blue. After plates are completely dry, a small amount of 1N HCl is added to each well to extract the methylene blue. The OD readout at 600 nm and a calibration curve are used to determine cell number.
After the addition of drugs and incubation, cells are trypsinized and aliquots of the samples are taken for counting and PI (Propidium Iodide) exclusion assay. One part of the cells is centrifuged and resuspended in 0.5 ml ice-cold PBS containing 5 μg/ml of PI. The other part of the cells is fixed in ice-cold 70% ethanol and stored in a freezer overnight. For cell cycle analysis, cells are stained with propidium iodide (PI) by standard procedures. Cellular DNA content is determined by flow cytometry using BD LSRII FACS, and the percentages of cells in G1, S or G2/M are determined using ModFit software.
as §2, with “min.” for “min,”
PI exclusion, cell cycle, TUNEL assays, and BrdU labeling assays are performed as described above in Example 2.

Data set [7] is described as follows: Tissue distribution / blood-brain barrier. The note with it: in vivo.
Source text: as §1
While not wishing to be bound by any particular theory, it is believed that BA achieves its anti-neoplastic effect by inhibiting the function of PARP. In some embodiments, BA can be used in the treatment of triple negative metastatic breast tumors. In some embodiments, BA can be used in the treatment of breast tumors in which at least one of ER, PR, and Her2 is negative. In some embodiments, BA can be used in the treatment of breast tumors in which at least two of ER, PR, and Her2 is negative, e.g. ER-negative, PR-negative, and Her-2 positive; or ER-positive, PR-negative, and Her-2 negative; or ER-negative, PR-positive, and Her-2 negative.

The subject of data set [8] is Bcr-abl. The note with it: read-out: inhibits Bcr-abl phosphorylation, IC50; cited from earlier work.
The subject of data set [9] is panel of 63 other kinases, including native c-Abl. The note with it: cited from earlier work.
For data set [10] the following is noted: prepared as directed (10 mg/ml); room temperature; cited from earlier work.

T1 sequence (P09874 whole entry): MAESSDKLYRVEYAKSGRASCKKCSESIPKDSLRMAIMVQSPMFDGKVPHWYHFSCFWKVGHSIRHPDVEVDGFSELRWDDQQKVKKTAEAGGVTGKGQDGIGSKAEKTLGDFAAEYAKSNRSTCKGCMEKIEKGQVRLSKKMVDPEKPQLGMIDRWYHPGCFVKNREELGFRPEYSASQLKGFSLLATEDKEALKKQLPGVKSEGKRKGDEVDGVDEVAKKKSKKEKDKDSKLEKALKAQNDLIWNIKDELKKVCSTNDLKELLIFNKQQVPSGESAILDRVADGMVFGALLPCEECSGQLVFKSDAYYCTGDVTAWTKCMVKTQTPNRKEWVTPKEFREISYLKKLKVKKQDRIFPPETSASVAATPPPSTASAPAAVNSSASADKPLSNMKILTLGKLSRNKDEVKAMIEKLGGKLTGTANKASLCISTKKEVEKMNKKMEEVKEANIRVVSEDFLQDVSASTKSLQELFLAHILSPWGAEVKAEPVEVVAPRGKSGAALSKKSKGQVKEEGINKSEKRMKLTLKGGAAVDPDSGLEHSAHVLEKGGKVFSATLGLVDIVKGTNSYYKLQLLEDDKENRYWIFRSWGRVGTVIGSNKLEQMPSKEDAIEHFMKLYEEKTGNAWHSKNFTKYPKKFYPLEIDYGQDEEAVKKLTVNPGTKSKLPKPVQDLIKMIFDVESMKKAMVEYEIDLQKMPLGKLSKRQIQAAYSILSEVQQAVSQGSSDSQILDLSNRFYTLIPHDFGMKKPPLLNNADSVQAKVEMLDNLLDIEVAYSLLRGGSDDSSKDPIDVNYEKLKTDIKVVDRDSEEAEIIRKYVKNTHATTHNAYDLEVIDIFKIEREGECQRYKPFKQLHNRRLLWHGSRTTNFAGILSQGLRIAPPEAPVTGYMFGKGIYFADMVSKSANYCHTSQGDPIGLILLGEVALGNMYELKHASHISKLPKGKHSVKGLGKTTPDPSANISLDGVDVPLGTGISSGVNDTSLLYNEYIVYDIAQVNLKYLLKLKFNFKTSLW

As to `NC(=O)c1ccc(I)c([N+](=O)[O-])c1` [BA, 4-iodo-3-nitrobenzamide], the “subjects with evidence of stable disease for 2 cycles of treatment or more” value in data set [1] (BA in combination with chemotherapeutic regimens) is “Approximately 80%”. Besides, the “tolerability of combination of BA with each cytotoxic regimen” value in data set [1] (with topotecan, gemcitabine, temozolomide, or carboplatin+paclitaxel) is listed as “well tolerated”. In addition, the “effect on cell cycle arrest and antiproliferative effect of gamma irradiation” value in data set [2] (3 gray of gamma irradiation with 100 μM of BA, FIG. 6) is “potentiates S- and G2/M cell cycle arrest and enhances the antiproliferative effect of gamma irradiation”. In data set [2] (BA in combination with PPP), the “effect on cell cycle arrest and cytotoxic effects induced by PPP” value is “potentiates S- and G2/M cell cycle arrest and enhances cytotoxic effects”. Further, the “effect on cell cycle arrest and cytotoxic effects induced by carboplatin or gemcitabine” value in data set [2] (BA in combination with gemcitabine or carboplatin, FIG. 2) is “potentiates S- and G2/M cell cycle arrest and enhances cytotoxic effects”. For the same molecule, the “effect on cell cycle arrest and cytotoxic effects induced by irinotecan” value in data set [2] (BA in combination with irinotecan) was “potentiates S- and G2/M cell cycle arrest and enhances cytotoxic effects”. Besides, the G1 in data set [2] (Irinotecan 0 uM + BA 50 uM) was 65.50; in data set [2] (Irinotecan 0 uM + BA 100 uM), 57.72; in data set [2] (PPP 0 nM + 201 50 uM) it was 50.20; in [2] (PPP 0 nM + 201 100 uM), 40.63. In addition, the G2/M in [2] (Irinotecan 0 uM + BA 50 uM) is 11.02; in data set [2] (Irinotecan 0 uM + BA 100 uM) it was 15.34; in data set [2] (PPP 0 nM + 201 50 uM), 15.21; in data set [2] (PPP 0 nM + 201 100 uM), 20.16. The S in data set [2] (Irinotecan 0 uM + BA 50 uM) worked out at 23.48; in data set [2] (Irinotecan 0 uM + BA 100 uM), 26.93; in [2] (PPP 0 nM + 201 50 uM), 31.34; in [2] (PPP 0 nM + 201 100 uM), 34.52. For the same molecule, in data set [3], the lipophilicity entry is “very lipophilic”. Further, in [4], the blood-brain barrier result is listed as “cross the blood-brain barrier”. In data set [5] (Phase 1b), the “biologically relevant dose that elicits significant and sustained PARP inhibition” value was determined as 2.8 mg/kg. Moreover, in data set [5] (after multiple dosing with BA doses of 2.8 mg/kg or higher, FIG. 3), the “PARP inhibition in PBMCs from patients” value was “significant and prolonged PARP inhibition”. The “vital cells, % control” value in data set [6] (Irinotecan 0 uM + BA 50 uM) was found to be 91.5 % control; in data set [6] (Irinotecan 0 uM + BA 100 uM), 67.5 % control. Also, the “Vital Cell % control” value in data set [6] (PPP 0 nM + 201 50 uM) was found to be 82 % control; in data set [6] (PPP 0 nM + 201 100 uM), 61 % control. The tissue distribution entry in data set [7] is “distributes rapidly and widely into tissues, including the brain and cerebrospinal fluid (CSF)”.

Take `NC(=O)c1cccc(-c2cc(Nc3ccc(OC(F)(F)F)cc3)ncn2)c1` [GNF-2]: the half-inhibitory concentration (IC50) in data set [8] is 267 nM. Besides, in data set [9], the “inhibition of a panel of 63 other kinases, including native c-Abl” value is on record as “does not inhibit”.

Regarding `CCc1c2c(nc3ccc(OC(=O)N4CCC(N5CCCCC5)CC4)cc13)-c1cc3c(c(=O)n1C2)COC(=O)[C@]3(O)CC` [Irinotecan, reference compound], in data set [2] (Irinotecan 5 uM + BA 0 uM), the G1 is given as 38.17, the G2/M was found to be 28.05 and the S stood at 33.77. Also, the “vital cells, % control” value in [6] (Irinotecan 5 uM + BA 0 uM) is listed as 48.6 % control.

In the case of `N.N.O=C([O-])C1(C(=O)[O-])CCC1.[Pt+2]` [carboplatin], the “stability of carboplatin solutions” value in data set [10] is given as “eight”.

Turning to `COc1cc([C@@H]2c3cc4c(cc3[C@H](O)[C@H]3COC(=O)[C@@H]23)OCO4)cc(OC)c1OC` [PPP, Picropodophyllin, reference compound], in data set [2] (PPP 200 nM + 201 0 uM), the G1 is on record as 51.42, the G2/M stood at 15.01 and the S was determined as 30.22. For the same molecule, in [2] (PPP 400 nM + 201 0 uM), the G1 was 37.29, the G2/M was 20.17 and the S is listed as 25.32. Moreover, in [6] (PPP 200 nM + 201 0 uM), the “Vital Cell % control” value is on record as 89 % control. The “Vital Cell % control” value in data set [6] (PPP 400 nM + 201 0 uM) was 60 % control.

The IC50 is the point on the concentration scale where inhibition reaches its midpoint.

The values are drawn from US7732491B2, “Treatment of breast cancer with a PARP inhibitor alone or in combination with anti-tumor agents” (priority 2007, dated 2010).
